Data: patent US20250263459A1, “STABILIZED PACAP PEPTIDE” (SENJU PHARMACEUTICAL CO., LTD., priority 2019, published 2025)
Non-standard residues stand in square brackets, D forms with d. Residues, ends and D or L forms follow the SMILES beside them. Ala(1H-tetrazol-5-yl) = N[C@@H](Cc1nnn[nH]1)C(=O)O

Assay: Stability test 1, sample preparation 5: survival rate of peptide in Tris buffer (pH 7.0) after storage, HPLC
Assay type: physicochemical
Details: 100 μM peptide; for survival rate after correction for water, 40° C. 4 week / survival rate after correction for water, 40° C. 8 week: Tris buffer pH 7.0, 40° C.; for survival rate after correction for water, 40° C. 4 week: 4 weeks (Table 13); for survival rate after correction for water, 40° C. 8 week: 8 weeks (Table 13); for survival rate after correction for water, 60° C. 1 week / survival rate after correction for water, 60° C. 2 week: Tris buffer pH 7.0, 60° C.; for survival rate after correction for water, 60° C. 1 week: 1 week (Table 13); for survival rate after correction for water, 60° C. 2 week: 2 weeks (Table 13)
Description: The peak area value for the peptide in the chromatogram was calculated, and the survival rate (survival rate before correction for water) was calculated using formula (2). The survival rate after correction for water was also calculated from the survival rate before correction for water using formula (3) to take into account the permeability of the container.
The prepared peptide solutions were incubated for 4 weeks or 8 weeks in a 40° C. thermostatic bath, and for one week or 2 weeks in a thermostatic bath at 60° C., to obtain stored samples.
The following gradient time was used only for peptide 30.

SMILES	survival rate after correction for water, 40° C. 4 week [%]	survival rate after correction for water, 40° C. 8 week [%]	survival rate after correction for water, 60° C. 1 week [%]	survival rate after correction for water, 60° C. 2 week [%]
CC[C@H](C)[C@H](NC(=O)CNC(=O)[C@H](Cc1nnn[nH]1)NC(=O)[C@H](CO)NC(=O)[C@H](Cc1c[nH]cn1)NC(C)=O)C(=O)N[C@@H](Cc1ccccc1)C(=O)N[C@@H](C)C(=O)N[C@@H](Cc1nnn[nH]1)C(=O)N[C@@H](CO)C(=O)N[C@@H](Cc1ccc(O)cc1)C(=O)N[C@@H](CO)C(=O)N[C@@H](CCCNC(=N)N)C(=O)N[C@@H](Cc1ccc(O)cc1)C(=O)N[C@@H](CCCNC(=N)N)C(=O)N[C@@H](CCCCN)C(=O)N[C@@H](CCC(N)=O)C(=O)N[C@@H](C)C(=O)N[C@@H](C)C(=O)N[C@H](C(=O)N[C@@H](CCCCN)C(=O)N[C@@H](CCCCN)C(=O)N[C@@H](Cc1ccc(O)cc1)C(=O)N[C@@H](CC(C)C)C(=O)N[C@@H](C)C(=O)N[C@@H](C)C(=O)N[C@H](C(=O)N[C@@H](CC(C)C)C(N)=O)C(C)C)C(C)C [Peptide 29, HSTzGI FATzSY SRYRK QAAVK KYLAA VL] (Ac-HS[Ala(1H-tetrazol-5-yl)]GIFA[Ala(1H-tetrazol-5-yl)]SYSRYRKQAAVKKYLAAVL-NH2)	86.1	77.4	96.3	91.9
CC[C@H](C)[C@H](NC(=O)CNC(=O)[C@H](Cc1nnn[nH]1)NC(=O)[C@H](CO)NC(=O)[C@H](Cc1c[nH]cn1)NC(C)=O)C(=O)N[C@@H](Cc1ccccc1)C(=O)N[C@@H](C)C(=O)N[C@@H](Cc1nnn[nH]1)C(=O)N[C@@H](CO)C(=O)N[C@@H](Cc1ccc(O)cc1)C(=O)N[C@@H](CO)C(=O)N[C@@H](CCCNC(=N)N)C(=O)N[C@@H](Cc1ccc(O)cc1)C(=O)N[C@@H](CCCNC(=N)N)C(=O)N[C@@H](CCCCN)C(=O)N[C@@H](CCC(N)=O)C(=O)N[C@@H](CC(C)C)C(=O)N[C@@H](C)C(=O)N[C@H](C(=O)N[C@@H](CCCCN)C(=O)N[C@@H](CCCCN)C(=O)N[C@@H](Cc1ccc(O)cc1)C(=O)N[C@@H](CC(C)C)C(=O)N[C@@H](C)C(=O)N[C@@H](C)C(=O)N[C@H](C(=O)N[C@@H](CC(C)C)C(N)=O)C(C)C)C(C)C [Peptide 24, HSTzGI FATzSY SRYRK QLAVK KYLAA VL] (Ac-HS[Ala(1H-tetrazol-5-yl)]GIFA[Ala(1H-tetrazol-5-yl)]SYSRYRKQLAVKKYLAAVL-NH2)	90.5	83.5	99.5	91.1
CC[C@H](C)[C@H](NC(=O)CNC(=O)[C@H](Cc1nnn[nH]1)NC(=O)[C@H](C)NC(=O)[C@H](Cc1c[nH]cn1)NC(C)=O)C(=O)N[C@@H](Cc1ccccc1)C(=O)N[C@H](C(=O)N[C@@H](Cc1nnn[nH]1)C(=O)N[C@@H](CO)C(=O)N[C@@H](Cc1ccc(O)cc1)C(=O)N[C@@H](CO)C(=O)N[C@@H](CCCNC(=N)N)C(=O)N[C@@H](Cc1ccc(O)cc1)C(=O)N[C@@H](CCCNC(=N)N)C(=O)N[C@@H](CCCCN)C(=O)N[C@@H](C)C(=O)N[C@@H](CC(C)C)C(=O)N[C@@H](C)C(=O)N[C@H](C(=O)N[C@@H](CCCCN)C(=O)N[C@@H](CCCCN)C(=O)N[C@@H](Cc1ccc(O)cc1)C(=O)N[C@@H](CC(C)C)C(=O)N[C@@H](C)C(=O)N[C@@H](C)C(=O)N[C@H](C(=O)N[C@@H](CC(C)C)C(N)=O)C(C)C)C(C)C)[C@@H](C)O [Peptide 26, HATzGI FITzSY SRYRK ALAVK KYLAA VL] (Ac-HA[Ala(1H-tetrazol-5-yl)]GIFT[Ala(1H-tetrazol-5-yl)]SYSRYRKALAVKKYLAAVL-NH2)	93.2	89.7	97.9	94.4
CC[C@H](C)[C@H](NC(=O)CNC(=O)[C@H](Cc1nnn[nH]1)NC(=O)[C@H](C)NC(=O)[C@H](Cc1c[nH]cn1)NC(C)=O)C(=O)N[C@@H](Cc1ccccc1)C(=O)N[C@@H](C)C(=O)N[C@@H](Cc1nnn[nH]1)C(=O)N[C@@H](C)C(=O)N[C@@H](Cc1ccc(O)cc1)C(=O)N[C@@H](CO)C(=O)N[C@@H](CCCNC(=N)N)C(=O)N[C@@H](Cc1ccc(O)cc1)C(=O)N[C@@H](CCCNC(=N)N)C(=O)N[C@@H](CCCCN)C(=O)N[C@@H](C)C(=O)N[C@@H](C)C(=O)N[C@@H](C)C(=O)N[C@H](C(=O)N[C@@H](CCCCN)C(=O)N[C@@H](CCCCN)C(=O)N[C@@H](Cc1ccc(O)cc1)C(=O)N[C@@H](CC(C)C)C(=O)N[C@@H](C)C(=O)N[C@@H](C)C(=O)N[C@H](C(=O)N[C@@H](CC(C)C)C(N)=O)C(C)C)C(C)C [Peptide 30, HATzGI FATzAY SRYRK AAAVK KYLAA VL] (Ac-HA[Ala(1H-tetrazol-5-yl)]GIFA[Ala(1H-tetrazol-5-yl)]AYSRYRKAAAVKKYLAAVL-NH2)	91.5	83.4	96.7	93.7
CC[C@H](C)[C@H](NC(=O)CNC(=O)[C@H](Cc1nnn[nH]1)NC(=O)[C@H](C)NC(=O)[C@H](Cc1c[nH]cn1)NC(C)=O)C(=O)N[C@@H](Cc1ccccc1)C(=O)N[C@@H](C)C(=O)N[C@@H](Cc1nnn[nH]1)C(=O)N[C@@H](CO)C(=O)N[C@@H](Cc1ccc(O)cc1)C(=O)N[C@@H](CO)C(=O)N[C@@H](CCCNC(=N)N)C(=O)N[C@@H](Cc1ccc(O)cc1)C(=O)N[C@@H](CCCNC(=N)N)C(=O)N[C@@H](CCCCN)C(=O)N[C@@H](CCC(N)=O)C(=O)N[C@@H](CC(C)C)C(=O)N[C@@H](C)C(=O)N[C@H](C(=O)N[C@@H](CCCCN)C(=O)N[C@@H](CCCCN)C(=O)N[C@@H](Cc1ccc(O)cc1)C(=O)N[C@@H](CC(C)C)C(=O)N[C@@H](C)C(=O)N[C@@H](C)C(=O)N[C@H](C(=O)N[C@@H](CC(C)C)C(N)=O)C(C)C)C(C)C [Peptide 25, HATzGI FATzSY SRYRK QLAVK KYLAA VL] (Ac-HA[Ala(1H-tetrazol-5-yl)]GIFA[Ala(1H-tetrazol-5-yl)]SYSRYRKQLAVKKYLAAVL-NH2)	91.3	85.1	97.3	93.1
CC[C@H](C)[C@H](NC(=O)CNC(=O)[C@H](Cc1nnn[nH]1)NC(=O)[C@H](CO)NC(=O)[C@H](Cc1c[nH]cn1)NC(C)=O)C(=O)N[C@@H](Cc1ccccc1)C(=O)N[C@@H](C)C(=O)N[C@@H](Cc1nnn[nH]1)C(=O)N[C@@H](CO)C(=O)N[C@@H](Cc1ccc(O)cc1)C(=O)N[C@@H](CO)C(=O)N[C@@H](CCCNC(=N)N)C(=O)N[C@@H](Cc1ccc(O)cc1)C(=O)N[C@@H](CCCNC(=N)N)C(=O)N[C@@H](CCCCN)C(=O)N[C@@H](C)C(=O)N[C@@H](CC(C)C)C(=O)N[C@@H](C)C(=O)N[C@H](C(=O)N[C@@H](CCCCN)C(=O)N[C@@H](CCCCN)C(=O)N[C@@H](Cc1ccc(O)cc1)C(=O)N[C@@H](CC(C)C)C(=O)N[C@@H](C)C(=O)N[C@@H](C)C(=O)N[C@H](C(=O)N[C@@H](CC(C)C)C(N)=O)C(C)C)C(C)C [Peptide 28, HSTzGI FATzSY SRYRK ALAVK KYLAA VL] (Ac-HS[Ala(1H-tetrazol-5-yl)]GIFA[Ala(1H-tetrazol-5-yl)]SYSRYRKALAVKKYLAAVL-NH2)	94.1	89.8	98.6	90.9
CC(=O)N[C@@H](Cc1c[nH]cn1)C(=O)N[C@@H](CO)C(=O)N[C@@H](Cc1nnn[nH]1)C(=O)NCC(=O)N[C@@H](C)C(=O)N[C@@H](Cc1ccccc1)C(=O)N[C@H](C(=O)N[C@@H](Cc1nnn[nH]1)C(=O)N[C@@H](CO)C(=O)N[C@@H](Cc1ccc(O)cc1)C(=O)N[C@@H](CO)C(=O)N[C@@H](CCCNC(=N)N)C(=O)N[C@@H](Cc1ccc(O)cc1)C(=O)N[C@@H](CCCNC(=N)N)C(=O)N[C@@H](CCCCN)C(=O)N[C@@H](CCC(N)=O)C(=O)N[C@@H](CC(C)C)C(=O)N[C@@H](C)C(=O)N[C@H](C(=O)N[C@@H](CCCCN)C(=O)N[C@@H](CCCCN)C(=O)N[C@@H](Cc1ccc(O)cc1)C(=O)N[C@@H](CC(C)C)C(=O)N[C@@H](C)C(=O)N[C@@H](C)C(=O)N[C@H](C(=O)N[C@@H](CC(C)C)C(N)=O)C(C)C)C(C)C)[C@@H](C)O [Peptide 23, HSTzGA FTTzSY SRYRK QLAVK KYLAA VL] (Ac-HS[Ala(1H-tetrazol-5-yl)]GAFT[Ala(1H-tetrazol-5-yl)]SYSRYRKQLAVKKYLAAVL-NH2)	87.7	89.1	96.4	91.3
